Values of other authors, collected in patent publication US5268308A, “Immunoassay for pyridostigmine” (priority 1989, dated 1993).

Assays:
central nervous system = settings: moderate doses; cited from earlier work
[1] = biological solutions, particularly plasma and blood; cited from earlier work

SMILES: CN(C)C(=O)Oc1ccc[n+](C)c1 [Pyridostigmine]
- effect on the central nervous system (central nervous system): usually do not effect the central nervous system
- in vitro hydrolysis [1]: extensive in vitro hydrolysis
